Read-outs that look alike come from different tables or passages of the source.

These results are taken from PMC7144330, “2-Thiopyrimidine/chalcone hybrids: design, synthesis, ADMET prediction, and anticancer evaluation as STAT3/STAT5a inhibitors” (Journal of Enzyme Inhibition and Medicinal Chemistry, 2020).

One data set relates to K-562. Put plainly: MTT cytotoxic assay, leukaemia K-562 cell line. It counts as cell-based. The note with it: Homo sapiens, K562, read-out: (IC50 μM)±SD K-562. Here is the method: (§1) To investigate cytotoxic activity of the final target compounds 9a–r, MTT assay was performed. Three different cell lines were used, leukaemia (K-562), breast (MCF-7) and colon (HT-29) cell lines. Cisplatin and erlotinib were the reference drugs used in this study.
(§2) All target compounds 9a–r were screened against three different cancer cell lines, leukaemia (K-562), breast (MCF-7), and colon (HT-29). MTT assay was used. Both cisplatin and erlotinib were used as the reference drugs. Cytotoxicity results are recorded in Table 1.

The test system of the next data set is MCF-7. In words: MTT cytotoxic assay, breast MCF-7 cell line. The note with it: Homo sapiens, MCF7, read-out: (IC50 μM)±SD MCF-7. The format is cell-based, human. Here is the method: as §1, §2
A further data set deals with HT-29. Put plainly: MTT cytotoxic assay, colon HT-29 cell line. It counts as cell-based. The note with it: Homo sapiens, read-out: (IC50 μM)±SD HT-29. Here is the method: as §1, §2
Data set [1] has as its target T1, STAT3 (Homo sapiens, UniProt P40763).
T1 construct: endogenous in cells; host or cells: K-562 and MCF-7 cells (nuclear extracts)
In words: TransAM STAT3 activation assay on nuclear extracts of treated cells. The note with it: 24 h, read-out: Inhibition IC50 (µM) STAT3. The format is cell-based. The procedure:
(§3) Both K-562 and MCF-7 cell lines were seeded overnight in plates, then 10 µM of test compounds (9a and 9r for MCF-7 cells; 9d, 9f, and 9n for K-562 cells) or reference drug pacritinib was added for 24 h. A nuclear extract kit was used to extract nuclear fractions from treated cells using the manufacture’s procedure. STAT3 and STAT5a activations were analysed using the collected nuclear extracts (20 µg) through TransAM STAT3 and STAT5a activation assay guided by the manufacture’s protocol. The obtained results were expressed in the form of mean ± SD. Each experiment was done in triplicate.
(§4) Pacritinib, an inhibitor for both STAT3 and STAT5a[49] was used in this study as a reference drug.

For a further data set, the target named is T2, STAT5a (Homo sapiens, UniProt P42229).
T2 construct: endogenous in cells; host or cells: K-562 and MCF-7 cells (nuclear extracts)
T2 sequence (P42229 1-794): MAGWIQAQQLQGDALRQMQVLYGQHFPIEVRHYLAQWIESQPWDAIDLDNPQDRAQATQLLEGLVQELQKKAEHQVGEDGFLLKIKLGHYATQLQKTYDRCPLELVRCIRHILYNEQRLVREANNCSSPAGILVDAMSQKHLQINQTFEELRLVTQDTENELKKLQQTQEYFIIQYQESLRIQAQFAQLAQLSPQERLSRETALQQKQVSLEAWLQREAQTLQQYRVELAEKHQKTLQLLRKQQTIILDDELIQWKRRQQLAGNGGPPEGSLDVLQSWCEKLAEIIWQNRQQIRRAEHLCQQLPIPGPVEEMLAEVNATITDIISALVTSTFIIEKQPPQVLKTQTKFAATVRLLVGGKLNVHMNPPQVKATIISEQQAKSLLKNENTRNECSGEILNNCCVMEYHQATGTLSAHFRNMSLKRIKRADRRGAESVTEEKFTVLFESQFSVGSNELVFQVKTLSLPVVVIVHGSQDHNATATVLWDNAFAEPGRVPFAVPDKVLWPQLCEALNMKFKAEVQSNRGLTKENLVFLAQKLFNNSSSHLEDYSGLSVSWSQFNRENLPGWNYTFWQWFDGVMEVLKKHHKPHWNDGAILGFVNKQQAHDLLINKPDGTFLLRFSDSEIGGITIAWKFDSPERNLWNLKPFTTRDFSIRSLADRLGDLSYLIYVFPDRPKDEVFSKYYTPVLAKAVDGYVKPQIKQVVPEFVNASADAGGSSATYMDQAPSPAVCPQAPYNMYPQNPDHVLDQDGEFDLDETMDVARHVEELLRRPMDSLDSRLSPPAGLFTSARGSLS
In words: TransAM STAT5a activation assay on nuclear extracts of treated cells. The note with it: 24 h, read-out: Inhibition IC50 (µM) STAT5a. It counts as cell-based. The procedure: as §3, §4

The nature of a further data set: in vitro. The note with it: human.
Data set [2] deals with STAT3. Set-up: method as in PMID 20067773. The note with it: breast cancer cells; read-out: EC50, inhibition of STAT3 function; cited from earlier work.
Data set [3] relates to STAT3. Set-up: method as in PMID 20067773. The note with it: myeloma cancer cells; read-out: EC50, inhibition of STAT3 function; cited from earlier work.
The subject of the next data set is human leukaemia cells. More on the design: method as in earlier work. The note with it: read-out: CC50, cytotoxic activity; cited from earlier work.

T1 sequence (P40763 whole entry): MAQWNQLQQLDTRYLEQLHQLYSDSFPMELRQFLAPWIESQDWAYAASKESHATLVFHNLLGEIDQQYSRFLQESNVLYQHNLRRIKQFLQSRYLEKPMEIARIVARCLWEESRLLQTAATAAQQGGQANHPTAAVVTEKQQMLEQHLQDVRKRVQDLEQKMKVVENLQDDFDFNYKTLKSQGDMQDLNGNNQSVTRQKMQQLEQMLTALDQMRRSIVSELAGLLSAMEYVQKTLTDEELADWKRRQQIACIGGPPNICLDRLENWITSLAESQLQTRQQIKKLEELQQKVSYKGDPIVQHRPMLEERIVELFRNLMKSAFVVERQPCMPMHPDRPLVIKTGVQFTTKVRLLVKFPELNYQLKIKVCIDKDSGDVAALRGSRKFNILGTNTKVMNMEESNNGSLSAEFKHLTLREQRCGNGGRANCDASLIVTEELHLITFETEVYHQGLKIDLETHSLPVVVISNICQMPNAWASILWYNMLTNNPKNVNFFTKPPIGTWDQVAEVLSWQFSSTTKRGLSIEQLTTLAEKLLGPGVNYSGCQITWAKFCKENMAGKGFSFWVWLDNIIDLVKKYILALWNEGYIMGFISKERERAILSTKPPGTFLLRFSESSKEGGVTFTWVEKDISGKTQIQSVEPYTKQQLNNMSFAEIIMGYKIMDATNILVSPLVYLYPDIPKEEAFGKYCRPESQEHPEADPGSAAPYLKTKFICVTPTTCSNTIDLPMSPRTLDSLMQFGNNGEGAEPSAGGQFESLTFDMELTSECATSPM

The molecule `COc1ccc(-c2cc(-c3ccc([N+](=O)[O-])cc3)nc(SCC(=O)Nc3ccc(C(=O)/C=C/c4cc(OC)c(OC)c(OC)c4)cc3)n2)cc1` [Compound 9f, (ZE)-2-[4-(4-Methoxyphenyl)-6-(4-nitrophenyl)pyrimidin-2-ylthio]-N-{4-[3-(3,4,5-trimethoxyphenyl)acryloyl]phenyl}acetamide] gave a melting point of 254 to 256 °C. Further, in the data set on K-562, the IC50 was 1.37 ± 0.03 µM. Also, the 50% inhibitory concentration (IC50) in the data set on MCF-7 was determined as 5.77 ± 0.22 µM. In addition, in the data set on HT-29, the half-maximal inhibitory concentration (IC50) was determined as 9.41 ± 0.43 µM. Besides, on STAT3 [1] (K562 cells), the IC50 stood at 245 ± 11.1 µM. Moreover, on STAT5a (K562 cells), the IC50 was 77.7 ± 2.91 µM. In “in vitro”, this molecule yielded a half-inhibitory concentration (IC50) of 29.2 to 40.1 µM.
`Cc1ccc(S(=O)(=O)N(C)CC(=O)N(Cc2ccc(C3CCCCC3)cc2)c2ccc(C(=O)O)c(O)c2)cc1` [Compound S3I-201.1066]: the values for the EC50 in the data set on STAT3 [2] and in the data set on STAT3 [3] were […] and […], respectively.
With `COc1cc(/C=C/C(=O)c2ccc(NC(=O)CSc3nc(-c4ccc(Cl)cc4)cc(-c4ccc(OCCCl)cc4)n3)cc2)cc(OC)c1OC` [Compound 9r], the melting point lay within 221 to 223 °C. Besides, in the data set with K-562, the 50% inhibitory concentration (IC50) is 10.7 ± 0.77 µM. Besides, the half-inhibitory concentration (IC50) in the data set on MCF-7 worked out at 1.37 ± 0.07 µM. For the same molecule, the half-inhibitory concentration (IC50) in the data set with HT-29 is 4.74 ± 0.27 µM. The IC50 at STAT3 [1] (MCF7 cells) was 149 ± 3.81 µM. The concentration for half-maximal inhibition (IC50) on STAT5a (MCF7 cells) worked out at 63.2 ± 1.57 µM. In “in vitro”, this molecule registered a 50% inhibitory concentration (IC50) of 29.2 to 40.1 µM.
As to `Cc1cccc(Nc2ccccc2C(=O)Nc2ccc(C(=O)/C=C/c3ccc(Cl)cc3)cc2)c1C` [chloro-derivative of compound X], the CC50 in the data set on human leukaemia cells was 2.17 µM.
In turn, `COc1ccc(/C=C/C(=O)c2ccc(NC(=O)CSc3nc(-c4ccc(C)cc4)cc(-c4ccc(OC)cc4)n3)cc2)cc1` [Compound 9a, (ZE)-2-[4-(4-Methoxyphenyl)-6-p-tolylpyrimidin-2-ylthio]-N-{4-[3-(4 methoxyphenyl)acryloyl]phenyl}acetamide] gave a melting point of 226 to 228 °C. Further, the 50% inhibitory concentration (IC50) with K-562 turned out to be 18.4 ± 0.76 µM. In addition, the half-inhibitory concentration (IC50) with MCF-7 was 3.56 ± 0.14 µM. Moreover, in the data set with HT-29, the IC50 came to 2.2 ± 0.04 µM. The IC50 at STAT3 [1] (MCF7 cells) was determined as 243 ± 9.24 µM. The IC50 on STAT5a (MCF7 cells) was 83.8 ± 3.28 µM. In addition, half-maximal inhibition in “in vitro” (IC50) required 17.1 µM.
Molecule `COc1ccc(/C=C/C(=O)c2ccc(NC(=O)CSc3nc(-c4ccc(Cl)cc4)cc(-c4ccc([N+](=O)[O-])cc4)n3)cc2)cc1OC` [Compound 9n, (ZE)-2-[4-(4-Chlorophenyl)-6-(4-nitrophenyl)pyrimidin-2-ylthio]-N-{4-[3-(3,4-dimethoxyphenyl)acryloyl]phenyl}acetamide] returned a melting point of 147 to 149 °C. For the same molecule, the 50% inhibitory concentration (IC50) with K-562 is 1.05 ± 0.02 µM. For the same molecule, in the data set on MCF-7, the IC50 was found to be 17.4 ± 0.75 µM. Besides, the half-inhibitory concentration (IC50) in the data set with HT-29 is 2.1 ± 0.06 µM. Moreover, on STAT3 [1] (K562 cells), the half-maximal inhibitory concentration (IC50) worked out at 113 ± 3.22 µM. Moreover, on STAT5a (K562 cells), the half-maximal inhibitory concentration (IC50) was found to be 50.7 ± 1.26 µM. In addition, in the data set “in vitro”, the IC50 fell in the range of 29.2 to 40.1 µM.
With `Cc1cccc(Nc2ccccc2C(=O)Nc2ccc(C(=O)/C=C/c3ccc(N(C)C)cc3)cc2)c1C` [dimethylamino-derivative of compound X], the CC50 in the data set with human leukaemia cells is 2.06 µM.
